Data set [1] has as its system HEL cells. In words: Minimum cytotoxic concentration, alteration of cell morphology in HEL cells. The data set is classed as cell-based, human. The following applies: for Minimum cytotoxic concentration (MCC) (HEL): Table 1, microscopically detectable alteration of normal cell morphology; for Minimum cytotoxic concentration (HEL): Table 2, microscopically detectable alteration of cell morphology.

For data set [2], the system named is TK+ VZV strain YS. In words: Plaque reduction, TK+ VZV strain YS in HEL cells. The data set is classed as cell-based, varicella-zoster virus. The following applies: Human alphaherpesvirus 3, HEL, read-out: EC50 TK+ VZV strains YS.
For data set [3], the system named is HIV-1. As to conditions: cited from earlier work.

Take `Nc1nc(O)c2ncn(COC(CO)CO)c2n1` [Ganciclovir, reference compound]: the “Minimum cytotoxic concentration (MCC) (HEL)” value in data set [1] is more than 100 µM.
Turning to `C[C@H](NP(=O)(OC[C@H]1O[C@@H](n2cc(Br)c(=O)[nH]c2=O)C(F)(F)[C@@H]1O)Oc1ccccc1)C(=O)OCc1ccccc1` (stereo partly drawn) [Compound 20, 2′-Deoxy-2′,2′-difluoro-D-5-bromouridine 5′-O-phenyl-(benzoxy-alaninyl)-phosphate], in data set [1], the “Minimum cytotoxic concentration (MCC) (HEL)” value was more than 100 µM and the “Minimum cytotoxic concentration (HEL)” value is more than 50 µM.
A word on the EC50: it is the concentration at which the effect is half-maximal. Turning to `O=c1[nH]c(=O)n([C@H]2C[C@H](O)[C@@H](CO)O2)cc1/C=C/Br` [Brivudin, reference compound], the concentration giving a half-maximal response (EC50) in data set [2] is 11 nM. Further, the “Minimum cytotoxic concentration (HEL)” value in data set [1] is recorded as “⩾300 μM”.
On to `COC(=O)[C@H](C)NP(=O)(OC[C@H]1O[C@@H](n2cc(I)c(=O)[nH]c2=O)C(F)(F)[C@@H]1O)Oc1ccccc1` (stereo partly drawn) [Compound 17, 2′-Deoxy-2′,2′-difluoro-D-5-iodouridine 5′-O-phenyl-(methoxy-alaninyl)-phosphate], for which, in data set [1], the “Minimum cytotoxic concentration (MCC) (HEL)” value is more than 100 µM and the “Minimum cytotoxic concentration (HEL)” value was more than 50 µM.
The matching figures for `C[C@H](NP(=O)(OC[C@H]1O[C@@H](n2cc(Cl)c(=O)[nH]c2=O)C(F)(F)[C@@H]1O)Oc1ccccc1)C(=O)OCc1ccccc1` (stereo partly drawn) [Compound 21, 2′-Deoxy-2′,2′-difluoro-D-5-chlorouridine 5′-O-phenyl-(benzoxy-alaninyl)-phosphate]: more than 100 µM and more than 50 µM.
For `Nc1nc2c(ncn2COCCO)c(=O)[nH]1` [Acyclovir, reference compound], the “Minimum cytotoxic concentration (HEL)” value in data set [1] was more than 400 µM.
With `C[C@H](NP(=O)(OC[C@H]1O[C@@H](n2cc(I)c(=O)[nH]c2=O)C(F)(F)[C@@H]1O)Oc1ccccc1)C(=O)OCc1ccccc1` (stereo partly drawn) [Compound 16, 2′-Deoxy-2′,2′-difluoro-D-5-iodouridine 5′-O-phenyl-(benzoxy-alaninyl)-phosphate], the “Minimum cytotoxic concentration (MCC) (HEL)” value in data set [1] is more than 100 µM.
`Nc1ncnc2c1ncn2C1OC(CO)C(O)C1(F)F` (stereo not drawn) [adenine derivative]: the “activity against HIV-1 in PBM cells” value in data set [3] is 3.4 µM.

Source of the values: PMC7127735 (Bioorganic & Medicinal Chemistry, 2011).
